The text below walks through data of patent US10207011B2, “Methods, systems, and devices for an invertebrate model of traumatic brain injury” (WISCONSIN ALUMNI RESEARCH FOUNDATION, priority 2013, dated 2019).

Each structure is given as a SMILES string.

The test system of this assay is w^1118 flies. Kind of assay: Mortality after standard TBI protocol in aspirin-fed flies. Conditions: 0-3-day old w^1118 flies cultured four days on food with 0.4 ml aspirin (200 mg/ml in DMSO) before standard TBI protocol; FIG. 5. The class given is in vivo, Drosophila. An excerpt:
Based on the data described in Example 2, we designed a standard TBI protocol for administering controlled impacts to generate primary injuries. The standard TBI protocol consisted of four impacts with five min recovery intervals between impacts. Reproducibility and rapidity were the driving forces behind the choice of protocol parameters. […] As a proof of concept for identifying an agent that could reduce the severity of an impact-associated phenotype, e.g., lethality, we tested whether, the non-steroidal anti-inflammatory drug, aspirin, affects TBI outcomes. Flies were treated with aspirin by feeding and then subjected to the standard TBI protocol. 0.4 ml of aspirin (200 mg/ml in DMSO) or DMSO only was added to vials with food and allowed to absorb into the food for two hours. 0-3-day old w^1118 flies, with an approximately equal number of male and female flies, were cultured on the food for four days. Flies were then left untreated or subjected to the standard TBI protocol. […] Thus, aspirin pre-treatment raises the primary injury threshold.

As to `CC(=O)Oc1ccccc1C(=O)O` [aspirin], the “mortality 24 hours after a controlled impact, relative to DMSO-treated flies” value was “lower mortality than the DMSO-treated flies”.
